Entries after “also recorded” stand apart in the source; their conditions may differ.
How the values were obtained:
[1] = Absorption spectra / extinction coefficients; type: physicochemical; settings: pro-fluorophores, PBS buffer containing 0.6 % glutaraldehyde at pH 7
Experimental: Absorption spectra were recorded in a 1-cm path length cuvette (Hellma, 104.002B-QS) on a SPECORD®-205 spectrometer from Analytik Jena.
The Extinction coefficients of the flourophores fluorescein, 5-carboxyfluorescein (5-CF), 5-carboxy Oregon Green™ (5-COG), 5-amido N-propyl Oregon Green (5-POG; Example 2) and 5-amido N-propyl fluorescein (5-PFA; Example 3) were measured in 0.1 M NaOH solution at pH 12.7.
The extinction coefficients of the pro-fluorophores 5-thiourea N-propyl fluorescein diacetate (5-PFDAT; Example 5), 5-propyl carboxylate fluorescein diacetate (5-PFDAE; Example 8), 5-amido N-propyl fluorescein diacetate (5-PFDA; Example 7), 5-carboxy Oregon Green diacetate (5-COGDA; Example 9), 5-amido N-propyl Oregon Green diacetate (5-POGDA; Example 6) and 5-amido N-propyl Oregon Green acetoxymethylester (5-POGAM; Example 10) were measured in PBS buffer containing 0.6 % glutaraldehyde at pH 7.

E. coli (EC18) = assay: Immunofluorescence and viability staining of E. coli; type: cell-based, Escherichia coli; settings: 15 µM, 30 min at 37 °C, PBS containing 0.6 % glutaraldehyde
Experimental: Environmental E. Coli (EC18) were cultivated and re-suspended in PBS as described above. A dead bacterial suspension was also prepared as previously described. Dead or viable E. coli (EC18) (100 µl of suspension at 1.10^9 bacteria/ml) were incubated with rabbit anti-EC18 polyclonal antibodies (anti-EC18 pAb) (dilution 1/20) for 1 h at room temperature. This anti-EC 18 pAb was obtained from immunized rabbit with inactivated EC18 (Eurogentec). Bacteria were washed in PBS by centrifugation at 10000 rpm for 3 min at room temperature. Then, they were resuspended in 200 µl of PBS solution containing 0.6 % of glutaraldehyde with 15 µM of 5-POGDA and incubated for 30 min at 37 °C in the absence of light. Following several washes with PBS as described above, dead or viable E. coli (EC18) were re-suspended in 200 µl of PBS and incubated for 1 h at room temperature in the absence of light with AlexaFluor 568 labeled anti-rabbit immunoglobulin (dilution 1/1000) (Molecularprobes, A11036). Bacteria were washed twice and re-suspended in 100 µl of PBS. They were imaged with a Leica DM5500 microscope equipped with FITC and Cy3 filters. Images were collected with a 100x objective. The same experiment was repeated three times (n = 3).

Structure (SMILES) | E (extinction coefficient) [1] [M⁻¹ cm⁻¹] | λAbs max [1] [nm] | green fluorescence of viable and dead E. coli (EC18) coated with antibodies (E. coli (EC18))
CCCNC(=O)c1ccc2c(c1)C(=O)OC21c2cc(F)c(OC(C)=O)cc2Oc2cc(OC(C)=O)c(F)cc21 [Example 5-POGDA, 2',7'-difluoro-3-oxo-5-(propylcarbamoyl)-3H-spiro[isobenzofuran-1,9'-xanthene]-3',6'-diyl diacetate] | 9784 ± 351 | 303 | bright green fluorescence; also recorded: viable cells have a green fluorescence and dead cells have no green fluorescence
CCCNC(=O)c1ccc2c(c1)C(=O)OC21c2cc(F)c(OCOC(C)=O)cc2Oc2cc(OCOC(C)=O)c(F)cc21 [Example 5-POGAM, 2',7'-difluoro-3-oxo-5-(propylcarbamoyl)-3H-spiroisobenzofuran-1,9'-xanthene-3',6'-diyl diacetoxymethyl ether] | 11165 ± 334 | 302 | –
